Test results reported in ChEMBL document CHEMBL1130731, “Methyloxime-substituted aminopyrrolidine: a new surrogate for 7-basic group of quinolone” (Bioorg Med Chem Lett, 1998).
≈ marks a conversion by molar mass, not a printed value.

Tests used:
[1] = test system: Acinetobacter calcoaceticus; experiment: In vitro antimicrobial activity against Acinetobacter calcoaceticus 15473; assay type: functional
Bacillus subtilis = experiment: In vitro antimicrobial activity against Bacillus subtilis ATCC 6633; assay type: functional
Citrobacter koseri = experiment: In vitro antimicrobial activity against Citrobacter diversus 2046E; assay type: functional
Escherichia coli [2] = experiment: In vitro antimicrobial activity against Escherichia coli 10536; assay type: functional
Escherichia coli [3] = experiment: In vitro antimicrobial activity against Escherichia coli 3190Y; assay type: functional
Escherichia coli [4] = experiment: In vitro antimicrobial activity against Escherichia coli 851E; assay type: functional
Escherichia coli [5] = experiment: In vitro antimicrobial activity against Escherichia coli TEM5 3739E; assay type: functional
Enterobacter cloacae = experiment: In vitro antimicrobial activity against Enterobacter cloacae p99; assay type: functional
Klebsiella aerogenes = experiment: In vitro antimicrobial activity against Klebsiella aerogenes 1076E; assay type: functional
Micrococcus luteus = experiment: In vitro antimicrobial activity against Micrococcus luteus ATCC 9341; assay type: functional
Pseudomonas aeruginosa = experiment: In vitro antimicrobial activity against Pseudomonas aeruginosa 1012E; assay type: functional
Salmonella typhimurium = experiment: In vitro antimicrobial activity against Salmonella Typhimurium 14028; assay type: functional, Salmonella enterica subsp. enterica serovar Typhimurium; settings: Salmonella enterica
[6] = test system: Staphylococcus epidermidis; experiment: In vitro antimicrobial activity against Staphylococcus epidermis 178; assay type: functional
[7] = test system: Staphylococcus epidermidis; experiment: In vitro antimicrobial activity against Staphylococcus epidermis 887E; assay type: functional
Staphylococcus aureus [8] = experiment: In vitro antimicrobial activity against Staphylococcus aureus 241; assay type: functional
Staphylococcus aureus [9] = experiment: In vitro antimicrobial activity against Staphylococcus aureus 77; assay type: functional
Staphylococcus aureus [10] = experiment: In vitro antimicrobial activity against Staphylococcus aureus giorgio; assay type: functional
Escherichia coli [11] = experiment: In vitro antimicrobial activity against Escherichia coli 10536
[12] = Tmax value after administration of 20 mg/Kg oral dose in rat; assay type: ADME, organism-based; settings: in vivo
[13] = Cmax value after administration of 20 mg/Kg oral dose in rat; assay type: ADME, organism-based; set-up: dose 20 mg/Kg, route oral; settings: in vivo
[14] = AUC value after administration of 20 mg/Kg oral dose in rat; assay type: ADME, organism-based; settings: plasma
Mus musculus [15] = experiment: In vivo efficacy against systemic infection of Pseudomonas aeruginosa 1912E in mouse; assay type: functional
Mus musculus [16] = experiment: In vivo efficacy against systemic infection of Staphylococcus aureus giorgio in mouse; assay type: functional
[17] = Tmax value after administration of 4 mg/Kg oral dose in dog; assay type: ADME, organism-based, Canis lupus familiaris; settings: in vivo
in vivo [18] = settings: dog, po, 4 mg/kg
in vivo [19] = settings: dog, po, 4 mg/kg; remark: listed apart in the source
[20] = Half-life after administration of 4 mg/Kg oral dose in dog; settings: in vivo
[21] = Bioavailability in dog (dose 4 mg/kg p.o.); assay type: ADME, organism-based, Canis lupus familiaris; settings: in vivo, po
[22] = Half-life after administration of 20 mg/Kg oral dose in rat; assay type: ADME, organism-based; settings: in vivo
[23] = Bioavailability in rat (dose 20 mg/kg p.o.); assay type: ADME, organism-based; settings: in vivo, po

Row | Structure (SMILES) | MIC [1] [µg/mL] | MIC (Bacillus subtilis) [µg/mL] | MIC (Citrobacter koseri) [µg/mL] | MIC (Escherichia coli [2]) [µg/mL] | MIC (Escherichia coli [3]) [µg/mL] | MIC (Escherichia coli [4]) [µg/mL] | MIC (Escherichia coli [5]) [µg/mL] | MIC (Enterobacter cloacae) [µg/mL] | MIC (Klebsiella aerogenes) [µg/mL] | MIC (Micrococcus luteus) [µg/mL] | MIC (Pseudomonas aeruginosa) [µg/mL] | MIC (Salmonella typhimurium) [µg/mL] | MIC [6] [µg/mL] | MIC [7] [µg/mL] | MIC (Staphylococcus aureus [8]) [µg/mL] | MIC (Staphylococcus aureus [9]) [µg/mL] | MIC (Staphylococcus aureus [10]) [µg/mL] | further results
1 | CO/N=C1\CN(c2nc3c(cc2F)c(=O)c(C(=O)O)cn3C2CC2)CC1N (stereo not drawn) | 0.063 (≈ 0.168 µM) | ≤ 0.008 | 0.063 (≈ 0.168 µM) | ≤ 0.008 | ≤ 0.008 | 0.063 (≈ 0.168 µM) | 1 (≈ 2.66 µM) | 0.016 (≈ 0.0426 µM) | 0.25 (≈ 0.666 µM) | 1 (≈ 2.66 µM) | 2 (≈ 5.33 µM) | 0.13 (≈ 0.346 µM) | 8 (≈ 21.3 µM) | 0.063 (≈ 0.168 µM) | 8 (≈ 21.3 µM) | 0.063 (≈ 0.168 µM) | 0.063 (≈ 0.168 µM) | 
2 | NC1CN(c2c(F)cc3c(=O)c(C(=O)O)cn(C4CC4)c3c2F)C/C1=N\O (stereo not drawn) | 0.5 (≈ 1.32 µM) | 0.063 (≈ 0.167 µM) | 0.13 (≈ 0.344 µM) | 0.016 (≈ 0.0423 µM) | ≤ 0.008 | 0.031 (≈ 0.0819 µM) | 0.5 (≈ 1.32 µM) | 0.031 (≈ 0.0819 µM) | 0.5 (≈ 1.32 µM) | 0.25 (≈ 0.661 µM) | 1 (≈ 2.64 µM) | 0.63 (≈ 1.67 µM) | 64 (≈ 169 µM) | 0.13 (≈ 0.344 µM) | 32 (≈ 84.6 µM) | 0.063 (≈ 0.167 µM) | 0.063 (≈ 0.167 µM) | 
3 | CO/N=C1/CN(c2cc3c(cc2F)c(=O)c(C(=O)O)cn3C2CC2)CC1N (stereo not drawn) | 0.031 (≈ 0.0828 µM) | ≤ 0.008 | 0.031 (≈ 0.0828 µM) | 0.016 (≈ 0.0427 µM) | ≤ 0.008 | 0.031 (≈ 0.0828 µM) | 0.5 (≈ 1.34 µM) | ≤ 0.008 | 0.25 (≈ 0.668 µM) | 0.25 (≈ 0.668 µM) | 1 (≈ 2.67 µM) | 0.13 (≈ 0.347 µM) | 16 (≈ 42.7 µM) | 0.031 (≈ 0.0828 µM) | 32 (≈ 85.5 µM) | 0.031 (≈ 0.0828 µM) | 0.016 (≈ 0.0427 µM) | 
4 | CO/N=C1/CN(c2c(F)cc3c(=O)c(C(=O)O)cn(C4CC4)c3c2Cl)CC1N (stereo not drawn) | 0.031 (≈ 0.0758 µM) | ≤ 0.008 | 0.063 (≈ 0.154 µM) |  | ≤ 0.008 | 0.031 (≈ 0.0758 µM) | 0.25 (≈ 0.612 µM) | 0.016 (≈ 0.0391 µM) | 0.25 (≈ 0.612 µM) | 0.13 (≈ 0.318 µM) | 2 (≈ 4.89 µM) | 0.13 (≈ 0.318 µM) | 0.5 (≈ 1.22 µM) | 0.016 (≈ 0.0391 µM) | 0.5 (≈ 1.22 µM) | 0.016 (≈ 0.0391 µM) | 0.016 (≈ 0.0391 µM) | MIC (Escherichia coli [11]): 0.016 µg/mL (≈ 0.0391 µM)
5 | CNC1CN(c2nc3c(cc2F)c(=O)c(C(=O)O)cn3C2CC2)C/C1=N\OC (stereo not drawn) | 0.13 (≈ 0.334 µM) | ≤ 0.008 | 0.13 (≈ 0.334 µM) | ≤ 0.008 | ≤ 0.008 | 0.063 (≈ 0.162 µM) | 1 (≈ 2.57 µM) | ≤ 0.008 | 0.5 (≈ 1.28 µM) | 2 (≈ 5.14 µM) | 4 (≈ 10.3 µM) | 0.25 (≈ 0.642 µM) | 32 (≈ 82.2 µM) | 0.063 (≈ 0.162 µM) | 16 (≈ 41.1 µM) | 0.063 (≈ 0.162 µM) | 0.031 (≈ 0.0796 µM) | 
6 | O=C(O)c1cn(C2CC2)c2cc(N3CCNCC3)c(F)cc2c1=O [CIPROFLOXACIN] | 0.25 (≈ 0.754 µM) | 0.031 (≈ 0.0936 µM) | 0.016 (≈ 0.0483 µM) | ≤ 0.008 | ≤ 0.008 |  | 0.13 (≈ 0.392 µM) |  | 0.13 (≈ 0.392 µM) | 4 (≈ 12.1 µM) | 0.13 (≈ 0.392 µM) | 0.031 (≈ 0.0936 µM) | 128 (≈ 386 µM) | 0.13 (≈ 0.392 µM) | 128 (≈ 386 µM) | 0.25 (≈ 0.754 µM) | 0.25 (≈ 0.754 µM) | Tmax [12]: 6.6 min; Cmax [13]: 900 ng/mL; AUC [14]: 2590 ng·h/mL; ED50 (Mus musculus [15]): 3.11 mg/kg; ED50 (Mus musculus [16]): 7.46 mg/kg; Tmax [17]: 67.2 min; Cmax (in vivo [18]): 910 ng/mL; AUC (in vivo [19]; in vivo): 4540 ng·h/mL
7 | NC1CN(c2c(F)cc3c(=O)c(C(=O)O)cn(C4CC4)c3c2F)C/C1=N\OCCF (stereo not drawn) | 0.13 (≈ 0.306 µM) | 0.016 (≈ 0.0377 µM) | 0.13 (≈ 0.306 µM) | 0.031 (≈ 0.073 µM) | 0.016 (≈ 0.0377 µM) | 0.031 (≈ 0.073 µM) | 0.25 (≈ 0.589 µM) | 0.016 (≈ 0.0377 µM) | 0.25 (≈ 0.589 µM) | 0.25 (≈ 0.589 µM) | 2 (≈ 4.71 µM) | 0.13 (≈ 0.306 µM) | 2 (≈ 4.71 µM) | 0.063 (≈ 0.148 µM) | 2 (≈ 4.71 µM) | 0.063 (≈ 0.148 µM) | 0.031 (≈ 0.073 µM) | 

Second part, led by results:

Row | MIC [1] [µg/mL] | MIC (Bacillus subtilis) [µg/mL] | MIC (Citrobacter koseri) [µg/mL] | MIC (Escherichia coli [2]) [µg/mL] | MIC (Escherichia coli [3]) [µg/mL] | MIC (Escherichia coli [4]) [µg/mL] | MIC (Escherichia coli [5]) [µg/mL] | MIC (Enterobacter cloacae) [µg/mL] | MIC (Klebsiella aerogenes) [µg/mL] | MIC (Micrococcus luteus) [µg/mL] | MIC (Pseudomonas aeruginosa) [µg/mL] | MIC (Salmonella typhimurium) [µg/mL] | MIC [6] [µg/mL] | MIC [7] [µg/mL] | MIC (Staphylococcus aureus [8]) [µg/mL] | MIC (Staphylococcus aureus [9]) [µg/mL] | MIC (Staphylococcus aureus [10]) [µg/mL] | Structure (SMILES) | further results
8 | 0.031 (≈ 0.0741 µM) | ≤ 0.008 | 0.13 (≈ 0.311 µM) | 0.031 (≈ 0.0741 µM) | ≤ 0.008 | 0.063 (≈ 0.151 µM) | 0.5 (≈ 1.2 µM) | 0.031 (≈ 0.0741 µM) | 0.25 (≈ 0.598 µM) | 0.25 (≈ 0.598 µM) | 2 (≈ 4.78 µM) | 0.25 (≈ 0.598 µM) | 2 (≈ 4.78 µM) | 0.016 (≈ 0.0382 µM) | 2 (≈ 4.78 µM) | 0.031 (≈ 0.0741 µM) | 0.016 (≈ 0.0382 µM) | C=CCO/N=C1\CN(c2c(F)cc3c(=O)c(C(=O)O)cn(C4CC4)c3c2F)CC1N (stereo not drawn) | 
9 | 0.031 (≈ 0.0761 µM) | ≤ 0.008 | 0.063 (≈ 0.155 µM) | ≤ 0.008 | ≤ 0.008 | 0.031 (≈ 0.0761 µM) | 0.13 (≈ 0.319 µM) | ≤ 0.008 | 0.25 (≈ 0.614 µM) | 0.5 (≈ 1.23 µM) | 1 (≈ 2.45 µM) | 0.063 (≈ 0.155 µM) | 2 (≈ 4.91 µM) | 0.016 (≈ 0.0393 µM) | 2 (≈ 4.91 µM) | 0.031 (≈ 0.0761 µM) | ≤ 0.008 | CO/N=C1\CN(c2c(F)c(N)c3c(=O)c(C(=O)O)cn(C4CC4)c3c2F)CC1N (stereo not drawn) | 
10 | 0.016 (≈ 0.0408 µM) | ≤ 0.008 | 0.063 (≈ 0.161 µM) | ≤ 0.008 | ≤ 0.008 | 0.031 (≈ 0.079 µM) | 0.25 (≈ 0.637 µM) | ≤ 0.008 | 0.13 (≈ 0.331 µM) | 0.13 (≈ 0.331 µM) | 1 (≈ 2.55 µM) | 0.063 (≈ 0.161 µM) | 2 (≈ 5.1 µM) | 0.016 (≈ 0.0408 µM) | 2 (≈ 5.1 µM) | 0.016 (≈ 0.0408 µM) | ≤ 0.008 | CO/N=C1\CN(c2c(F)cc3c(=O)c(C(=O)O)cn(C4CC4)c3c2F)CC1N (stereo not drawn) | Tmax [12]: 10.8 min; half-life [20]: 140 min; bioavailability [21]: > 100%; half-life [22]: 311 min; bioavailability [23]: > 100%; Cmax [13]: 22800 ng/mL; AUC [14]: 179000 ng·h/mL; ED50 (Mus musculus [15]): 9.69 mg/kg; ED50 (Mus musculus [16]): 0.87 mg/kg; Tmax [17]: 13.8 min; Cmax (in vivo [18]): 3440 ng/mL; AUC (in vivo [19]; plasma): 12900 ng·h/mL
